# Assay results published in patent US11007554B2, “Method, system and device for reducing microbial concentration and/or biofilm formation” (EMODs Technology, L.L.C., priority 2018, dated 2021).
# Read-outs that look alike come from different tables or passages of the source.
# Tested on: microbes
smiles,measurement,setting,value
OO [hydrogen peroxide],microbes eliminated,3% hydrogen peroxide together with radiation of a wavelength between 300 and 600 nanometers,99.999%
same,microbes eliminated,3% solution of hydrogen peroxide alone,approximately 30%
